Assay results from patent publication US6686390B2, “Compounds having antiinflamatory activity: process for their preparation and pharmaceutical compositions containing them” (Dr. Reddy's Laboratories Limited, priority 2000, dated 2004).

Legend:
COX-1 = target: T1, COX-1 (Homo sapiens, UniProt P23219); assay: Human whole blood assay, COX-1 inhibition; type: cell-based
T1 construct: Fresh heparinised human whole blood; endogenous in cells; host or cells: human whole blood
Experimental: (§1) 2) Human Whole Blood Assay:
Fresh heparinised human whole blood was incubated with lipopolysaccharide (LPS) from E. coli at 100 μg/ml and with 2.5 μl vehicle (D)MSO) or test compound for 24 hours at 37° C. PGE2 levels in the plasma were measured using EIA kit (Cayman chemicals, USA) after deproteinization.

COX-2 [1] = target: T2, COX-2 (Homo sapiens, UniProt P35354); assay: Human whole blood assay, COX-2 inhibition; type: cell-based; design: endogenous in cells; host or cells: human whole blood; settings: read-out: IC50 COX-II
T2 sequence (P35354 18-604): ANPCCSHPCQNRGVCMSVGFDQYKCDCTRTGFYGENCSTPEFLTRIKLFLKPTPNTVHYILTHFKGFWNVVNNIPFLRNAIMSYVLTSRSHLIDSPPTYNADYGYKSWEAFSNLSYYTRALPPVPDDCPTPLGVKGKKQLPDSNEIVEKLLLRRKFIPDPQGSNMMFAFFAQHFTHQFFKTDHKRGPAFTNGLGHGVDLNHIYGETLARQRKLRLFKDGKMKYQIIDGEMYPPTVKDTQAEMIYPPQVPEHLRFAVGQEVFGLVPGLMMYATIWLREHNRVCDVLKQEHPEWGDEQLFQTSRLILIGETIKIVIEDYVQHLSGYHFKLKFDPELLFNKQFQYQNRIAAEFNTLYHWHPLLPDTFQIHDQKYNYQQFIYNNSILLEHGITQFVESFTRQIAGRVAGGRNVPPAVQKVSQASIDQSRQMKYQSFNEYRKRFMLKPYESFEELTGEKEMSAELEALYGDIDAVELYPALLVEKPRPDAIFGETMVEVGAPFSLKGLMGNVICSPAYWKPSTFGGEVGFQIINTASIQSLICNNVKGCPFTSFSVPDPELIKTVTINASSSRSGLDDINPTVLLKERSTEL
Experimental: as §1
An aliquot of fresh blood was mixed either with DMSO or test compounds and was allowed to clot for 1 hour at 37° C. TXB2 levels in the serum were measured using EIA kit (Cayman chemicals, USA) after deproteinization.

COX-2 [2] = target: T2, COX-2; assay: Spectrophotometric assay of cox-2 (TMPD oxidation); type: biochemical; design: made in house; host or cells: sf-9 insect cells, baculovirus; settings: microsomes from sf-9 cells with human cox-2, read-out: Percent inhibition COX-2; for inhibition at 100 µM: Conc. 100 μM
Experimental: (§2) 1. Spectrophotometric assay of cox-1 and cox-2:
(§3) Microsomal fraction of ram seminal vesicles used as a source of cox-1 enzyme (Hemler et al., 1976) and microsomes from sf-9 cells infected with baculo virus containing human cox-2 c-DNA used as a source of cox-2 enzyme (Wanda et al., 1994). Enzyme activity was measured using a chromogenic assay based on oxidation of N,N,N′,N′-tetramethyl-p-phenylenediamine (TMPD) during the reduction of PGG2 to PGH2 as per described by Copeland et al., 1994 with following modifications. The assay mixture (1000 μl) contains […] pH 8.0, 3 μM EDTA, 15 μM hematin, 150 units enzyme and 8% DMSO. The mixture was pre-incubated at 25° C. for 15 minutes before initiation of enzyme reaction in presence of compound/vehicle. The reaction was initiated by the addition of 100 μM arachidonic acid and 120 μM TMPD. The enzyme activity is measured by estimation of the initial velocity of TMPD oxidation over the first 25 seconds of the reaction followed by increase in absorbency at […]. The IC50 values were calculated using non-linear regression analysis of percent inhibitions.

cox-1 enzyme = target: T3, cox-1 enzyme (Ovis aries, UniProt P05979); assay: Spectrophotometric assay of cox-1 (TMPD oxidation); type: biochemical; settings: microsomal fraction of ram seminal vesicles, read-out: Percent inhibition COX-1; for inhibition at 100 µM: Conc. 100 μM
T3 construct: Microsomal fraction of ram seminal vesicles used as a source of cox-1 enzyme; from tissue; host or cells: ram seminal vesicles (microsomal fraction)
T3 sequence (P05979 25-600): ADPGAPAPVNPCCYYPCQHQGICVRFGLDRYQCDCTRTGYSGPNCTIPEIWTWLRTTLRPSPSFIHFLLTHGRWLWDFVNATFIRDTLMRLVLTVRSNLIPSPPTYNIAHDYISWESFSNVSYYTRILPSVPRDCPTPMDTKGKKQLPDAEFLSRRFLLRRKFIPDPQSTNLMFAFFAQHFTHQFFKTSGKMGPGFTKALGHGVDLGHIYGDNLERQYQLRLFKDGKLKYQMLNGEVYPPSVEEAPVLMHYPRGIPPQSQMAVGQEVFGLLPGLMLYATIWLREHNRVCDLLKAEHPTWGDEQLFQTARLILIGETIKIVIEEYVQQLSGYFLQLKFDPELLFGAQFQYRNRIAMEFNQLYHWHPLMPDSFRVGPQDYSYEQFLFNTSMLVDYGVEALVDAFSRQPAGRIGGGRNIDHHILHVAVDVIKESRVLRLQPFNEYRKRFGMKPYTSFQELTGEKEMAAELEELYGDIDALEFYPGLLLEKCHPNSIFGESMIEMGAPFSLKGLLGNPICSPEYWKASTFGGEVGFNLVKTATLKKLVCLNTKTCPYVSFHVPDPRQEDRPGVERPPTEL
Experimental: as §2, §3

T1 sequence (P23219 24-599): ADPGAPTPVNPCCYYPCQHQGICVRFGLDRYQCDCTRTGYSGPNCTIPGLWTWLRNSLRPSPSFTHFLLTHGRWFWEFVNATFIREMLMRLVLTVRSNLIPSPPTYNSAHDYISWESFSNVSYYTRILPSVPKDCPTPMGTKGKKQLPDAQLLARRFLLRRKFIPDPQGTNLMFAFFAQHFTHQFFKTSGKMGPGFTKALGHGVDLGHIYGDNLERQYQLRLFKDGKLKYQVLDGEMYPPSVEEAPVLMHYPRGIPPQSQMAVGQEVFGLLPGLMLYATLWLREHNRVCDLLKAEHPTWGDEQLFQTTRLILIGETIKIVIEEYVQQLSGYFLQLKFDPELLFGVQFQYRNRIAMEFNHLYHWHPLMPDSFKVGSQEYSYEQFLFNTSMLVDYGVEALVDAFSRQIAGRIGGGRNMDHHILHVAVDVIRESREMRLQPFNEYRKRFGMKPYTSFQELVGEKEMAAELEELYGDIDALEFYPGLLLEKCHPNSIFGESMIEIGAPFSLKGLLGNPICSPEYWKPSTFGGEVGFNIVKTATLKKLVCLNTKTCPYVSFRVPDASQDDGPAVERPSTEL

Row | SMILES | IC50 (COX-1) [µM] | melting point [°C] | IC50 (COX-2 [1]) [µM] | inhibition at 100 µM (COX-2 [2]) [%] | inhibition at 100 µM (cox-1 enzyme) [%] | inhibition at 10 µM (COX-2 [2]; Conc. 10 μM) [%] | inhibition at 10 µM (cox-1 enzyme; Conc. 10 μM) [%]
1 | Cc1cc(C2=C(c3ccccc3)C(=O)OC2)ccc1S(C)(=O)=O [Example 6, 4-(3-Methyl-4-methylsulfonylphenyl)-3-phenyl-2,5-dihydro-2-furanone] | > 500 | 167 to 170 | 5.7 | 82 | 0 |  | 
2 | CS(=O)(=O)c1ccc(C2=C(c3cccc(F)c3)C(=O)OC2)c(F)c1 [Example 52, 4-(2-Fluoro-4-methylsulfonylphenyl)-3-(3-fluorophenyl)-2,5-dihydro-2-furanone] | 1220 ± 20 | 125 to 128 | 0.578 ± 0.011 | 100 | 12 |  | 
3 | COc1ccc(C2=C(c3ccc(S(C)(=O)=O)c(C)c3)COC2=O)cc1C [Example 55, 3-(3-Methyl-4-methoxyphenyl)-4-(3-methyl-4-methylsulfonylphenyl)-2,5-dihydro-2-furanone] | > 100 | 147 to 150 | 1 | 100 | 30 |  | 
4 | COc1ccc(C2=C(c3ccc(S(C)(=O)=O)cc3F)COC2=O)cc1C [Example 58, 4-(2-Fluoro-4-methylsulfonylphenyl)-3-(3-methyl-4-methoxyphenyl)-2,5-dihydro-2-furanone] | 357 ± 7.45 | 144 to 146 | 0.524 ± 0.062 | 93 | 19 |  | 
5 | CS(=O)(=O)c1ccc(C2=C(c3ccc(F)c(F)c3)C(=O)OC2)c(F)c1 [Example 69, 3-(3,4-Difluorophenyl)-4-(2-fluoro-4-methylsulfonylphenyl)-2,5-dihydro-2-furanone] | > 500 | 146 to 148 | 0.318 ± 0.013 | 93 | 10 |  | 
6 | CS(=O)(=O)c1ccc(C2=C(c3cc(F)cc(F)c3)C(=O)OC2)c(F)c1 [Example 70, 3-(3,5-Difluorophenyl)-4-(2-fluoro-4-methylsulfonylphenyl)-2,5-dihydro-2-furanone] | 115 | 125 to 127 | 0.913 | 92 | 49 |  | 

Other lines, results leading:

Row | IC50 (COX-1) [µM] | melting point [°C] | IC50 (COX-2 [1]) [µM] | inhibition at 100 µM (COX-2 [2]) [%] | inhibition at 100 µM (cox-1 enzyme) [%] | inhibition at 10 µM (COX-2 [2]; Conc. 10 μM) [%] | inhibition at 10 µM (cox-1 enzyme; Conc. 10 μM) [%] | SMILES
7 | 195 ± 27.5 | 160 to 162 | 2.72 ± 0.425 | 100 | 33 |  |  | CS(=O)(=O)c1ccc(C2=C(c3ccc(F)cc3)C(=O)OC2)c(F)c1 [Example 1, 3-(4-Fluorophenyl)-4-(2-fluoro-4-methylsulfonylphenyl)-2,5-dihydro-2-furanone]
8 | 247 ± 24 | 177 to 180 | 0.368 | 100 | 44 |  |  | CSc1ccc(C2=C(c3ccc(S(C)(=O)=O)c(F)c3)COC2=O)cc1C [Example 53, 4-(3-Fluoro-4-methylsulfonylphenyl)-3-(3-methyl-4-methylsulfanylphenyl)-2,5-dihydro-2-furanone]
9 | 297 | 176 to 178 | 1.25 | 100 | 0 |  |  | CCC1OC(=O)C(c2ccc(F)cc2)=C1c1ccc(S(C)(=O)=O)c(F)c1 (centres unmarked) [Example 68, 5-Ethyl-4-(3-fluoro-4-methylsulfonylphenyl)-3-(4-fluorophenyl)-2,5-dihydro-2-furanone]
10 |  | 148 to 150 |  | 99 | 3 |  |  | CCC1OC(=O)C(c2ccc(SC)c(C)c2)=C1c1ccc(S(C)(=O)=O)c(F)c1 (centres unmarked) [Example 71, 5-Ethyl-4-(3-fluoro-4-methylsulfonylphenyl)-3-(3-methyl-4-methylsulfanylphenyl)-2,5-dihydro-2-furanone]
11 | > 1000 | 190 to 192 | 6.13 |  |  | 95 | 0 | CC1OC(=O)C(c2ccc(F)cc2)=C1c1ccc(S(C)(=O)=O)c(F)c1 (centres unmarked) [Example 89, 4-(3-Fluoro-4-methylsulfonylphenyl)-3-(4-fluorophenyl)-5-methyl-2,5-dihydro-2-furanone]
